{"source": "patent EP0540813B1", "about": "“Sustained release formulations of acetazolamide” (AMERICAN CYANAMID COMPANY, priority 1991, dated 1993)", "origin": "cited, not measured here", "conditions": "reported in the literature"}
{"smiles": "CC(=O)Nc1nnc(S(N)(=O)=O)s1", "note": "[acetazolamide, N-(5-sulphamoyl-1,3,4-thiadiazol-2-yl)acetamide]", "values": [{"measurement": "plasma levels considered toxic", "value": "above 30 µg/ml"}, {"measurement": "therapeutic plasma range", "value": "5 to 10", "unit": "µg/mL"}]}
